According to US20240058387A1, “CULTURE MEDIUM COMPOSITION FOR AMPLIFYING AND MAINTAINING SELF-RENEWAL CAPACITY AND DIFFERENTIATION POTENTIAL OF HSCS AND APPLICATION THEREOF” (EDIGENE (GUANGZHOU) INC., priority 2020, published 2024):

Experiments:
[1] = system: umbilical cord blood-derived CD34+ cells; assay: Flow cytometry detection of HSC stemness markers (LT-HSCs CD34+CD45+CD90+CD45RA-CD38-) after small molecule induction; assay type: cell-based, human
Method: According to the solubility and required solvent indicated in the instructions of the small molecule inhibitor (see Table 1 for the Cat. number of the small molecule inhibitor), the preparation of the small molecule inhibitor stock solution was carried out. Next, the hematopoietic stem cell medium was prepared: SFEM II medium (stem cell, Cat. number: 09655)+50 ng/ml growth factor Flt-3L (PeProtech, Cat. number: 300-100UG)+50 ng/ml growth factor SCF (PeProtech, Cat. number): 300-07-100UG)+50 ng/ml growth factor TPO (PeProtech, Cat. number: 300-18-100UG)+10 ng/ml interleukin IL-6 (PeProtech, Cat. number: 200-06-20UG)+1% bispecific antibody (HyClone, Cat. No.: sv30010). According to the set concentration gradient of the small molecule inhibitor, the stock solution and the basal medium were used to prepare the medium containing different concentrations of the small molecule inhibitor.
First, the prepared medium was added to a 24-well plate (Corning, Cat. number: 3473), 950 μl per well, and placing it in a carbon dioxide incubator (Thermo, model: 3111) to preheat; resuspending the spare umbilical cord Blood-derived HSCs of Example 1 with SFEM 11+50 ng/ml Flt-3L+50 ng/ml SCF+50 ng/ml TPO+10 ng/ml IL-6+1% bispecific antibody, calculating the medium volume to be added according to 50 μl cell suspension per well and 2*10^5/m1 cell density per well. For example, when the final volume of the cell culture solution per well was 1 ml, the total number of cells per well was 2*10^5 cells calculated according to the cell density per well, and the density of the […] of cell suspension supplemented to each well is 4*10^6/ml. The density of the spare HSCs of Example 1 was adjusted to the calculated density of the cell suspension, and adding it; taking out the preheated medium from the incubator, adding 50 μl of the cell suspension to each well, and after mixing, using the microscope (OLYMPUS, model: CKX53) to observe the cells state, and then putting it into an incubator for culturing.
20 μL of cells cultured for 6-8 days (D6-D8) in the above Example 2 was sampled for counting, taking out a suspension of 2*10^5 cells into a 1.5 ml centrifuge tube according to the counting result; centrifuging at 400 g for 5 min, discarding the supernatant. 100 μL of PBS (phosphate-buffered saline solution, HyClone, Cat. number: SH30256.01) containing 1% HSA (human serum albumin, Guangdong Shuanglin, Cat. number: S10970069) was taken, resuspending the cells, and vortexing to mix well for later use. Then, the cell sample in the control was collected. The number of cells and the collection method were the same as those of the sample cells to be tested. The controls were setting as the NC group and the ISO group respectively, selecting the cells from any sample or mixed cells of the samples to be tested in this batch of experiments, depending on the number of cells.
According to Table 3 above, the antibodies were added to the cell suspensions of the above-mentioned cell samples to be tested and control cell samples according to groups; vortexing to mix and incubating at room temperature for 15 min in the dark. After 15-min incubation, 1 ml of PBS containing 1% HSA was added to each test sample, mixing well, centrifuging at 400 g for 5 min at room temperature. After centrifugation, the supernatant was discarded, and the cells were resuspended in 100 μL of PBS containing 1% HSA for each test sample. Samples were stored at room temperature away from light before testing. […]

[2] = system: umbilical cord blood-derived CD34+ cells; assay: In vivo transplantation of in vitro cultured CD34+ cells into irradiated immunodeficient NPG mice; details: FIG. 8A, cells cultured with 1 μM AG1296 (SR1 5 μM), week 18 after transplantation
Method: On the umbilical cord blood-derived CD34+ cells sorted in Example 1, the effects of the screened small molecule inhibitor AG1296 and the inhibitor SR1 reported in the literature on the in vivo hematopoietic system reconstitution ability was compared.
Preparation of cell medium: SFEM II+100 ng/ml Flt-3L+100 ng/ml SCF+100 ng/ml TPO+20 ng/ml IL-6+1% bispecific antibody. Cat. numbers of the medium, growth factor, bispecific antibody, etc. were as described in Example 2. According to the groups set in Table 4, different small molecule inhibitors were added.
The prepared cell medium was added to a 24-well plate, 950 μl per well, and placing it in a carbon dioxide incubator to preheat; using SFEMII+100 ng/ml Flt-3L+100 ng/ml SCF+100 ng/ml TPO+20 ng/ml IL-6+1% bispecific antibody to resuspend the spare umbilical cord blood-derived HSCs of Example 1. The medium volume required to resuspend the cells was calculated according to 50 μl of cell suspension was added to each well, and 0.28*10^5/ml cell density per well was; taking out the preheated medium from the incubator, adding 50 μl of resuspended cell suspension to each well, mixing well, observing the cell state under a microscope, and then putting them into the incubator for culture. […]
The proportions of human CD45, human CD19, human CD3, human CD33 and human CD56 in mouse bone marrow cells were detected by flow cytometry. […]

Compound: COc1cc2ncc(-c3ccccc3)nc2cc1OC [AG1296]
- expansion fold of the ratio of LT-HSCs (CD34+CD45+CD90+CD45RA-CD38-), test group/control group (Mock) ([1]; FIG. 2, 6-8 days induction, 3 concentrations per inhibitor): more than 3 times
- maintaining the CD3+, CD34+CD90+, CD34+CD90+CD45RA- cell ratios (proportion in total cells) ([1]; FIG. 3A, 1 μM, 5 μM and 10 μM, 6 days, vs Mock): superior to the Mock group
- proportion of LT-HSC relative to AG1296 (500 nM) ([1]; FIG. 4A, 1 μM, 6 days): about 2 times
- proportion of LT-HSC relative to Mock group and AG1296 (100 nM) group ([1]; FIG. 4A, 1 μM, 6 days): about 3 times
- maintaining the ratio of CD34+, CD34+CD90+, and CD34+CD90+CD45RA- cells ([1]; FIG. 4A, 1 μM, 6 days, vs Mock, 100 nM and 500 nM): better than Mock group and at the concentrations of 100 nM and 500 nM
- bone marrow transplantation efficiency (proportion of human CD45+ cells in mouse bone marrow cells) [2]: significantly higher than that of the Mock group and the SR1 group
